Values joined by “and” are separate entries in the source; they are usually repeats but may differ in a detail not shown here. Equal values may be shown once. Toxic doses and inconclusive results are not listed. Rule for the calls: active = survival T/C of 150% or more; inactive = T/C below 125% in these data.
System: BDF1 mice, B16 melanoma ip, median survival T/C
Test: NCI In Vivo Anticancer Drug Screen. Data for tumor model B16 Melanoma (intraperitoneal) in B6D2F1 (BDF1) mice
Conditions: endpoint: median survival time, higher = longer survival
Summary of the method: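 Vehicle-treated animals serve as the reference (C); treated animals (T) are scored for survival or tumor size after tumor transplantation.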

[1] = dose: 6.25 mg/kg/injection, schedule: Q01DX009 (ip), vehicle: saline with Tween-80
[2] = dose: 12.5 mg/kg/injection, schedule: Q01DX009 (ip), vehicle: saline with Tween-80
[3] = dose: 25.0 mg/kg/injection, schedule: Q01DX009 (ip), vehicle: saline with Tween-80
[4] = dose: 50.0 mg/kg/injection, schedule: Q01DX009 (ip), vehicle: saline with Tween-80
[5] = dose: 100.0 mg/kg/injection, schedule: Q01DX009 (ip), vehicle: Klucel (hydroxypropylcellulose) (HPC)
[6] = dose: 200.0 mg/kg/injection, schedule: Q01DX009 (ip), vehicle: Klucel (hydroxypropylcellulose) (HPC)
[7] = dose: 400.0 mg/kg/injection, schedule: Q01DX009 (ip), vehicle: Klucel (hydroxypropylcellulose) (HPC)
[8] = dose: 100.0 mg/kg/injection, schedule: Q01DX009 (ip), vehicle: saline with Tween-80
[9] = dose: 25.0 mg/kg/injection, schedule: Q01DX009 (ip), vehicle: saline
[10] = dose: 50.0 mg/kg/injection, schedule: Q01DX009 (ip), vehicle: saline

Measured: T/C

COc1ccccc1C(C#N)N1CCCN(C(C#N)c2ccccc2OC)C1c1cc(Cl)cc(Cl)c1O (stereo not drawn)
inactive: [1] 104 % of control | [2] 101 % of control | [3] 103 % of control | [4] 91 % of control and 124 % of control

CN(C)C1=C(N2CC2)C(=O)C(N(C)C)=C(N2CC2)C1=O
inactive: dose: 0.12 mg/kg/injection, schedule: Q01DX009 (ip), vehicle: saline 106 % of control | dose: 0.25 mg/kg/injection, schedule: Q01DX009 (ip), vehicle: saline 112 % of control | dose: 0.5 mg/kg/injection, schedule: Q01DX009 (ip), vehicle: saline 93 % of control | dose: 1.0 mg/kg/injection, schedule: Q01DX009 (ip), vehicle: saline 112 % of control

CO[C@@H]1[C@H](O)CC[C@]2(CO2)[C@H]1[C@@]1(C)O[C@@H]1CC=C(C)C
inactive: dose: 3.13 mg/kg/injection, schedule: Q01DX009 (ip), vehicle: saline with Tween-80 104 % of control | [1] 102 % of control | [2] 102 % of control | [3] 108 % of control | [4] 123 % of control

CCC1(O)CC(OC2CC(N(C)C)C(OC3CC4OC5CC(=O)C(C)OC5OC4C(C)O3)C(C)O2)c2c(cc3c(c2O)C(=O)c2c(O)ccc(O)c2C3=O)C1C(=O)OC (stereo not drawn)
inactive: dose: 0.75 mg/kg/injection, schedule: Q01DX009 (ip), vehicle: saline 88 % of control | dose: 0.75 mg/kg/injection, schedule: Q04DX003 (ip), vehicle: saline 97 % of control | dose: 1.5 mg/kg/injection, schedule: Q01DX009 (ip), vehicle: saline 105 % of control | dose: 1.5 mg/kg/injection, schedule: Q04DX003 (ip), vehicle: saline 88 % of control | dose: 3.0 mg/kg/injection, schedule: Q04DX003 (ip), vehicle: saline 97 % of control

Brc1ccc(-c2csc(Nc3nc(-c4ccc(Br)cc4)cs3)n2)cc1
inactive: [2] 105 % of control | [3] 122 % of control | dose: 25.0 mg/kg/injection, schedule: Q04DX003 (ip), vehicle: saline with Tween-80 97 % of control | [4] 89 % of control and 107 % of control | dose: 50.0 mg/kg/injection, schedule: Q04DX003 (ip), vehicle: saline with Tween-80 100 % of control | dose: 100.0 mg/kg/injection, schedule: Q04DX003 (ip), vehicle: saline with Tween-80 86 % of control and 94 % of control | dose: 200.0 mg/kg/injection, schedule: Q04DX003 (ip), vehicle: saline with Tween-80 86 % of control

CCCCCCCCCCCCCCCC[N+](C)(C)c1nc(Cl)nc(Cl)n1
inactive: dose: 2.0 mg/kg/injection, schedule: Q01DX009 (ip), vehicle: saline with Tween-80 97 % of control | dose: 4.0 mg/kg/injection, schedule: Q01DX009 (ip), vehicle: saline with Tween-80 100 % of control | dose: 8.0 mg/kg/injection, schedule: Q01DX009 (ip), vehicle: saline with Tween-80 95 % of control

C=CCOc1ccccc1Cl
inactive: dose: 50.0 mg/kg/injection, schedule: Q04DX003 (ip), vehicle: Klucel (hydroxypropylcellulose) (HPC) 122 % of control | [5] 100 % of control | [6] 107 % of control | dose: 200.0 mg/kg/injection, schedule: Q04DX003 (ip), vehicle: Klucel (hydroxypropylcellulose) (HPC) 119 % of control | [7] 97 % of control

CN1CCC23c4c5ccc(O)c4OC2C(O)C=CC3C1C5 (stereo not drawn)
inactive: dose: 32.0 mg/kg/injection, schedule: Q01DX009 (ip), vehicle: saline 114 % of control | dose: 64.0 mg/kg/injection, schedule: Q01DX009 (ip), vehicle: saline 111 % of control | dose: 128.0 mg/kg/injection, schedule: Q01DX009 (ip), vehicle: saline 100 % of control | dose: 256.0 mg/kg/injection, schedule: Q01DX009 (ip), vehicle: saline 94 % of control

Cc1ccc(Cl)cc1NC(=O)COc1ccc(Cl)cc1
inactive: [3] 92 % of control | [4] 91 % of control | [8] 88 % of control

C[C@H]1C(=O)O[C@@H]2CCN3CC=C(COC(=O)[C@](C)(O)[C@@]1(C)O)[C@H]23
inactive: [9] 123 % of control

CC(C)N(Cc1ccccc1)CC(O)c1ccc(Cl)cc1 (stereo not drawn)
inactive: dose: 12.5 mg/kg/injection, schedule: Q01DX009 (ip), vehicle: saline 94 % of control | [9] 86 % of control | [10] 101 % of control

C/C=C\C1OC1(C)c1cc(=O)c2c(C)cc3c(c2o1)C(=O)c1c(O)c(C2CC(C)(N(C)C)C(OC(C)=O)C(C)O2)cc(C2CC(N(C)C)C(O)C(C)O2)c1C3=O (stereo not drawn)
inactive: dose: 0.1 mg/kg/injection, schedule: Q01DX009 (ip), vehicle: saline 100 % of control | dose: 0.2 mg/kg/injection, schedule: Q01DX009 (ip), vehicle: saline 100 % of control | dose: 0.35 mg/kg/injection, schedule: Q01DX009 (ip), vehicle: saline with Tween-80 88 % of control | dose: 0.4 mg/kg/injection, schedule: Q01DX009 (ip), vehicle: saline 100 % of control | dose: 0.7 mg/kg/injection, schedule: Q01DX009 (ip), vehicle: saline with Tween-80 95 % of control | dose: 0.8 mg/kg/injection, schedule: Q01DX009 (ip), vehicle: saline 106 % of control

CC[N+]1(CC)CC[N+]2(CC1)CC[N+]1(CC[N+](CC)(CC)CC1)CC2
inactive: [10] 94 % of control | dose: 100.0 mg/kg/injection, schedule: Q01DX009 (ip), vehicle: saline 100 % of control | dose: 200.0 mg/kg/injection, schedule: Q01DX009 (ip), vehicle: saline 94 % of control

COc1ccc(Br)cc1/C=N\NS(=O)(=O)c1ccc(C)cc1
inactive: [5] 94 % of control | [8] 90 % of control | [6] 110 % of control | dose: 200.0 mg/kg/injection, schedule: Q01DX009 (ip), vehicle: saline with Tween-80 95 % of control | [7] 100 % of control

From PubChem BioAssay AID192 (DTP/NCI, 2004)
